Test results as given in ChEMBL document CHEMBL5325495, “Synthesis and anti-cancer potential of potent peripheral MAOA inhibitors designed to limit blood:brain penetration” (Bioorg Med Chem, 2023).

How the values were obtained:
[1] = molecular target: T1, Amine oxidase [flavin-containing] B (Homo sapiens, UniProt P27338); experiment: Inhibition of recombinant human MAO-B expressed in baculovirus infected BTI insect cells; assay type: cell-based
T1 sequence (P27338 whole entry): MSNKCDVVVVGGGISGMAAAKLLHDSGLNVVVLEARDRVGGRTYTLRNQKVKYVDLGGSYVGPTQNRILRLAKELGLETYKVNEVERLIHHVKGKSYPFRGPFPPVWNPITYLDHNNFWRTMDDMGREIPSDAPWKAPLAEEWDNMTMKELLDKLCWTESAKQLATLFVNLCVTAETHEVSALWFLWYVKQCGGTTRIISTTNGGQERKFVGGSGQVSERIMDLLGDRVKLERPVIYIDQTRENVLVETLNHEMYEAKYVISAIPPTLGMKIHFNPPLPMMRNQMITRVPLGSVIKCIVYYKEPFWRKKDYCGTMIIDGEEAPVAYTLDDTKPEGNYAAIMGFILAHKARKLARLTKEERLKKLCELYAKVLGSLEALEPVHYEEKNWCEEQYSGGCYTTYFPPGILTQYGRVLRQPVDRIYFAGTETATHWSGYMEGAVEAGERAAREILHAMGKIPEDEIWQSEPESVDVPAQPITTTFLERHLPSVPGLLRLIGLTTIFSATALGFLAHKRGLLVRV

[2] = test system: LNCaP C4-2B; experiment: Cytotoxicity against human LNCaP C4-2B cells incubated for 3 days by Cell-Titer Glo assay; assay type: functional; conditions: 72 h, time 3 day
[3] = test system: LNCaP; experiment: Cytotoxicity against human LNCaP cells incubated for 3 days by Cell-Titer Glo assay; assay type: functional; conditions: 72 h, time 3 day
[4] = molecular target: T2, Amine oxidase [flavin-containing] A (Homo sapiens, UniProt P21397); experiment: Inhibition of recombinant human MAO-A expressed in baculovirus infected BTI insect cells
T2 sequence (P21397 whole entry): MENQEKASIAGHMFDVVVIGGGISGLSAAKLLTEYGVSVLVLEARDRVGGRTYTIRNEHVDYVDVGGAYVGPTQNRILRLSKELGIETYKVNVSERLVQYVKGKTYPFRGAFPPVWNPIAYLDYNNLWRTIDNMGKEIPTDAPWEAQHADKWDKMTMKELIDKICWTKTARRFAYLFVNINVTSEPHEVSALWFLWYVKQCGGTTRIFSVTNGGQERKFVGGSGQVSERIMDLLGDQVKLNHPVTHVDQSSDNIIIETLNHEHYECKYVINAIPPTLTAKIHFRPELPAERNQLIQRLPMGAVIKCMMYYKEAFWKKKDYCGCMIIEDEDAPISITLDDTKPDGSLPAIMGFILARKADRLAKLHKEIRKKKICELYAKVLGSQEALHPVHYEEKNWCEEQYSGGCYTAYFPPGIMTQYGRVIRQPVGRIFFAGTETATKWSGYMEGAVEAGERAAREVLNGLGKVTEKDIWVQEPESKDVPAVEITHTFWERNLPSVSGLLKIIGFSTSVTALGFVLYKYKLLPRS

| SMILES | IC50 [1] [µM] | CC50 [2] [µM] | CC50 [3] [µM] | IC50 [4] [µM] |
| --- | --- | --- | --- | --- |
| C#CCN(C)CCCOc1cc(N)c(Cl)cc1Cl | > 500 | 31.6 | 31.1 | 0.0148 |
| C#CCN(C)CCCOc1cc(NC=O)c(Cl)cc1Cl | 25.3 | 84 | 85.9 | 6.6 |
| C#CCN(C)C[C@H](O)COc1cc(N)c(Cl)cc1Cl | > 500 | 73.7 | 78.9 | 0.0715 |
| C#CCN(C)CCCOc1cc(NC(=O)c2cc[nH]n2)c(Cl)cc1Cl | > 500 | 32.5 | 15.8 | 25.7 |
| C#CCN(CCO)CCCOc1cc(N)c(Cl)cc1Cl | > 500 | 43.9 | 55.8 | 0.764 |
| C#CCN(C)CCCOc1cc(C#N)c(Cl)cc1Cl | 38 | 72.4 | 65.4 | 0.103 |
| C#CCN(C)CCCOc1cc(NC(C)=O)c(Cl)cc1Cl | 352 | 97 | 97.3 | 8.66 |
| C#CCN(CCO)CCCOc1ccc(Cl)cc1Cl | > 500 | 46.5 | 35.7 | 0.794 |
| C#CCN(C)CCCOc1cc(C)c(Cl)cc1Cl | 122 | 66 | 37 | 6.78 |
| C#CCN(C)CCCOc1ccc(Cl)cc1Cl [CLORGILINE] | – | 53.5 | 51.5 | – |
| C#CCN(C)C[C@@H](O)COc1cc(N)c(Cl)cc1Cl | > 500 | 73.7 | 78.9 | 0.0715 |
| C#CCN(C)CCCOc1cc(NS(C)(=O)=O)c(Cl)cc1Cl | 69.6 | 119 | 103 | 0.064 |
| C#CCN(C)CCCOc1cc(O)c(Cl)cc1Cl | 0.91 | 30.2 | 35.5 | 0.0244 |
| NNCCc1ccccc1 [PHENELZINE] | – | 157 | 121 | – |
